16 compounds from patent US20140199372A1, “MICROBIAL GROWTH FACTORS” (NORTHEASTERN UNIVERSITY, priority 2011, published 2014) can be followed below.

One experiment concerns KLE1280. The experiment can be described thus: Induction of growth of KLE1280 by quinones on plates. The class given is cell-based, Porphyromonas sp. KLE1280. As to the method:
Serial dilutions of dental plaque from a healthy individual were spread onto Fastidious Anaerobe Agar plates containing 5% sheep blood and 5% pooled human saliva (FBS) and incubated anaerobically. Small colonies growing next to large ones on dense plates were picked and spread onto fresh FBS plates. A helper mix of colonies growing around individual small colonies was spotted on these plates. Isolates were identified that depended for growth on this mix. If E. coli produces a growth factor, its identification can be efficiently performed, since a complete knockout library of this species is available. Testing knockout mutants identifies those that lost their ability to help growth of the uncultured organism, which then leads to the identification of the biosynthetic pathway of the growth factor. […] This organism is closely related to Porphyromonas sp. oral taxon 279 (99% similarity by 16S rRNA gene sequencing) (96% similarity to closest type strain Porphyromonas catoniae). In particular, KLE1280 is closely related to Porphyromonas catoniae (96% similarity by 16S rRNA gene sequencing). […] This deletion mutant has the menaquinone biosynthesis genes deleted. […] 5 genes in the menaquinone biosynthesis pathway are knocked out in this mutant (http://www.shigen.nig.ac.jp/ecoli/pec/quickSearch.List.DeletionsDetailAction.do?fromListFlag=true&classId=4&deId=226). E. coli strains with single gene deletions in the menaquinone biosynthesis pathway were tested for induction of growth.
Different quinones (Q), commercially available and/or isolated from E. coli and Micrococcus luteus were tested for induction of growth of KLE1280.
Different concentrations of MK4 were spotted on media with and without blood (5%) or hemin (10 μg/ml) or hemoglobin (100 μg/ml).

In the next experiment the test system is Flaviramulus sp. KLE1215. As to the kind of experiment: Growth of KLE1215 in liquid culture with quinones delivered in liposomes. Conditions: R2A broth, 50% artificial sea salts, 0.001% Fe(II), MK4 250 μM to 1.5 mM, MK6 and MK6 chromenols purified from KLE1215. The class given is cell-based. On the procedure: The growth of Flaviramulus sp. KLE1215 is enhanced by the addition of purified quinone-like compounds when they are delivered in liposomes. […] Growth of KLE1215 induced with varying concentrations of MK4 delivered in liposomes. 5 ml liquid cultures of KLE1215 were set up with no supplement (squares), empty liposomes as liposome control (triangles), liposomes loaded with 250 μM MK4 (cross), liposomes loaded with 500 μM MK4 liposomes (asterisk), liposomes loaded with 750 μM MK4 (circle), liposomes loaded with 1 mM MK4 (vertical line), liposomes loaded with 1.25 mM MK4 (dark line), and liposomes loaded with 1.5 mM MK4 (light line) is shown in FIG. 8. […] broth (without yeast extract) with 50% artificial sea salts supplemented with 0.001% Fe(II) was used for these cultures. Values represent the average of two independent cultures of KLE1215 in […] broth with 50% artificial sea salts supplemented with 0.001% Fe(II). […] 5 ml liquid cultures of KLE1215 were prepared with nothing added (squares), empty liposome as liposome control (triangles), liposomes loaded with MK6 from KLE1215 (cross), and liposomes loaded with MK6 chromenols from KLE1215 (asterisk). R2A broth (without yeast extract) with 50% artificial sea salts supplemented with 0.001% Fe(II) was used for these cultures. Values represent the average of independent cultures of KLE1215 in […] broth with 50% artificial sea salts supplemented with 0.001% Fe(II).

The test system of another experiment is Bizinio sp. KLE1402. The experiment can be described thus: Growth of KLE1402 in liquid culture with quinone-loaded liposomes. The class given is cell-based. As to conditions: delivered by liposomes loaded with 500 μM MK4; R2A broth, 50% sea salts, 0.001% Fe(II). From the text:
Two isolates were streaked for isolation; the culturable helper on the left induces the growth of unculturable KLE1402 on the right only when it is close proximity. The closest relative to the dependent KLE1402 is Bizionia echini (96.6% Identity according to 16S rRNA gene sequence), from the family Flavobacteriaceae. The closest relative to the helper KLE1403 is Ruegeria lacuscaerulensis (98.4% identity by 16S rRNA gene sequence), from the class Alphaproteobacteria. E. coli induces the growth of KLE1402 (FIG. 11). KLE1402 spread evenly on R2A with 50% artificial sea salts and 0.001% Fe(II) with a dense spot of E. coli. […] KLE1402 spread evenly on R2A with 50% artificial sea salts and 0.001% Fe(II) with a dense spot of E. coli ΔubiG. KLE1402 grows with the addition of quinone-loaded liposomes (FIG. 13). Cells of KLE1402 were used to inoculate culture tubes with 5 ml R2A broth with 50% sea salts and 0.001% Fe(II). Tube A: no supplement, Tube B: Empty liposomes added, Tube C: Liposomes loaded with 500 μM MK4 added. KLE1402 grows with the addition of quinone-loaded liposomes (FIG. 14). 5 ml liquid cultures of KLE1402 were set up with no supplement (squares), empty liposomes as liposome control (triangles), liposomes loaded with 500 μM MK4 (cross). R2A broth with 50% artificial sea salts supplemented with 0.001% Fe(II) was used as media for these cultures. […]

The mark [1] stands for this setting: quinone isolated from M. luteus.

Like-named read-outs stand apart in the source and are kept apart here.

`COC1=C(OC)C(=O)C(C/C=C(\C)CCC=C(C)C)=C(C)C1=O` [Q2]: the “Results: induction of growth of KLE1280” value with KLE1280 (quinone commercially available) is given as “No induction”.

Consider `CC(C)=CCC/C(C)=C/CC/C(C)=C/CC/C(C)=C/CC/C(C)=C/CC/C(C)=C/CC/C(C)=C/CC/C(C)=C/CC1=C(C)C(=O)c2ccccc2C1=O` [Menaquinone8], for which the “Results: induction of growth of KLE1280” value is recorded as “No induction” in the experiment on KLE1280 (quinone isolated from E. coli) and “Very less induction (late)” with KLE1280 (setting [1]).

As for `COC1=C(OC)C(=O)C(C/C=C(\C)CC/C=C(\C)CC/C=C(\C)CC/C=C(\C)CC/C=C(\C)CC/C=C(\C)CC/C=C(\C)CC/C=C(\C)CC/C=C(\C)CCC=C(C)C)=C(C)C1=O` [Q10], the “Results: induction of growth of KLE1280” value in the experiment on KLE1280 (quinone commercially available) is recorded as “No induction”.

In the case of `COC1=C(OC)C(=O)C(CC=C(C)C)=C(C)C1=O` [Q1], in the experiment on KLE1280 (quinone commercially available), the “Results: induction of growth of KLE1280” value is recorded as “No induction”.

Take hemin: in the experiment on KLE1280 (substance alone), the “induction of growth of KLE1280” value is listed as “did not induce growth”.

For the compound `COC1C(=O)C(C)=C(C/C=C(\C)CC/C=C(\C)CC/C=C(\C)CCC=C(C)C)C(=O)C1OC` (stereo not drawn) [Q4], the “Results: induction of growth of KLE1280” value with KLE1280 (quinone commercially available) is “No induction”.

On to `CC(C)=CCC/C(C)=C/CC/C(C)=C/CC/C(C)=C/CC/C(C)=C/CC/C(C)=C/CC/C(C)=C/CC1=C(C)C(=O)c2ccccc2C1=O` [Menaquinone7], for which, in the experiment on KLE1280 (setting [1]), the “Results: induction of growth of KLE1280” value is on record as “Very less induction (late)”.

For the compound `CC(C)=CCC/C(C)=C/CC/C(C)=C/CC/C(C)=C/CC/C(C)=C/CC1=C(C)C(=O)c2ccccc2C1=O` [Menaquinone5], the “Results: induction of growth of KLE1280” value in the experiment on KLE1280 (setting [1]) is “Induction”.

Turning to hemoglobin, the “induction of growth of KLE1280” value with KLE1280 (substance alone) is reported as “did not induce growth”.

For the compound `COC1=C(OC)C(=O)C(C/C=C(\C)CC/C=C(\C)CC/C=C(\C)CC/C=C(\C)CC/C=C(\C)CC/C=C(\C)CCC=C(C)C)=C(C)C1=O` [Ubiquinone7], in the experiment with KLE1280 (quinone isolated from E. coli), the “Results: induction of growth of KLE1280” value is “No induction”.

On to menachromenal 6 [MK6 chromenols], for which the “growth of KLE1215” value in the experiment with Flaviramulus sp. KLE1215 is “growth-enhancing effects”.

On to `CC(C)=CCC/C(C)=C/CC/C(C)=C/CC/C(C)=C/CC1=C(C)C(=O)c2ccccc2C1=O` [Menaquinone4], for which the figures for the “induction of growth of KLE1280” value in the experiment with KLE1280, in the experiment with KLE1280 (spotted on media with blood (5%) or hemin (10 μg/ml) or hemoglobin (100 μg/ml)) and with KLE1280 (substance alone) were “induced growth”, “induced growth only in the presence of either of these 3 in the medium” and “did not induce growth”, respectively. For the same compound, the “Results: induction of growth of KLE1280” value in the experiment with KLE1280 (quinone commercially available) and with KLE1280 (setting [1]) was “Induction” each time. Moreover, the “growth of KLE1215” value in the experiment on Flaviramulus sp. KLE1215 is listed as “growth-enhancing effects”. In addition, the “growth of KLE1402” value in the experiment on Bizinio sp. KLE1402 is given as “can induce the growth”.

For `CC(C)=CCC/C(C)=C/CC/C(C)=C/CC/C(C)=C/CC/C(C)=C/CC/C(C)=C/CC1=C(C)C(=O)c2ccccc2C1=O` [Menaquinone6], the “Results: induction of growth of KLE1280” value in the experiment on KLE1280 (setting [1]) is “Induction”. Also, the “growth of KLE1215” value with Flaviramulus sp. KLE1215 is recorded as “growth-enhancing effects”.

Turning to `COC1=C(OC)C(=O)C(C/C=C(\C)CC/C=C(\C)CC/C=C(\C)CC/C=C(\C)CC/C=C(\C)CC/C=C(\C)CC/C=C(\C)CC/C=C(\C)CCC=C(C)C)=C(C)C1=O` [Q9], the “Results: induction of growth of KLE1280” value in the experiment with KLE1280 (quinone commercially available) is on record as “No induction”.

As to `COC1=C(OC)C(=O)C(C/C=C(\C)CC/C=C(\C)CC/C=C(\C)CC/C=C(\C)CC/C=C(\C)CC/C=C(\C)CC/C=C(\C)CCC=C(C)C)=C(C)C1=O` [Ubiquinone8], the “Results: induction of growth of KLE1280” value in the experiment with KLE1280 (quinone isolated from E. coli) is reported as “No induction”.

Take `O=C(O)c1cc(O)c2ccccc2c1O` [DHNA, 1,4-dihydroxy-2-naphthoate]: the “induction of growth of KLE1280” value with KLE1280 is “showed induction of growth”.
